# Data: PubChem BioAssay (NCI)
#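 1) Cells in 96-well plates. 2) Compound, 48 h, 5 concentrations. 3) Linear interpolation between surrounding doses. 4) Unreached endpoint = highest concentration. The concentration for 50% growth inhibition is given as GI50. TGI is the concentration that stops growth completely.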
# Tests used:
# Assay in all cases: NCI-60 cell line screen, 48 h
# RPMI-8226 leukemia = tested on: RPMI-8226 leukemia
# 786-0 renal = tested on: 786-0 renal
# HOP-62 NSCLC = tested on: HOP-62 NSCLC
# SF-539 CNS = tested on: SF-539 CNS
# OVCAR-4 ovarian = tested on: OVCAR-4 ovarian
# NCI-H460 lung = tested on: NCI-H460 lung
# KM12 colon = tested on: KM12 colon
# LOX IMVI melanoma = tested on: LOX IMVI melanoma
# MDA-MB-231 breast = tested on: MDA-MB-231 breast
SMILES,TGI (RPMI-8226 leukemia),TGI (786-0 renal),TGI (HOP-62 NSCLC),TGI (SF-539 CNS),TGI (OVCAR-4 ovarian),TGI (NCI-H460 lung),TGI (KM12 colon),TGI (LOX IMVI melanoma),TGI (MDA-MB-231 breast),GI50 (786-0 renal),GI50 (HOP-62 NSCLC),GI50 (SF-539 CNS),GI50 (RPMI-8226 leukemia),GI50 (OVCAR-4 ovarian),GI50 (KM12 colon),GI50 (LOX IMVI melanoma),GI50 (NCI-H460 lung),GI50 (MDA-MB-231 breast)
Cc1ccc(Oc2ccc([N+](=O)[O-])cc2[N+](=O)[O-])c(C)c1,97.7 µM,> 100 µM,> 100 µM,> 100 µM,> 100 µM,> 100 µM,,,,,,,,,,,,
Cn1cnc([N+](=O)[O-])c1Sc1nnnn1-c1ccccc1,52.6 µM,30.5 µM,> 100 µM,24.9 µM,22.2 µM,33.5 µM,35.2 µM,19.1 µM,,,,,,,,,,
NC(CC1=CCC=CC1)C(=O)O (stereo unspecified),> 100 µM,> 100 µM,> 100 µM,,> 100 µM,> 100 µM,> 100 µM,> 100 µM,> 100 µM,,,,,,,,,
Cc1cccc(C)c1NC(=O)CCc1n[nH]c(=S)o1,56.7 µM,> 100 µM,> 100 µM,> 100 µM,> 100 µM,> 100 µM,> 100 µM,,,,,,,,,,,
O=C(O)C1CCCCC1c1c2ccc(=O)cc-2oc2cc(O)ccc12 (stereo unspecified),> 100 µM,> 100 µM,,48.7 µM,88.1 µM,> 100 µM,49.1 µM,> 100 µM,> 100 µM,,,,,,,,,
Clc1ccc(Nc2ccnc(NCCCNc3ccnc4cc(Cl)ccc34)n2)cc1,,3.33 µM,2.94 µM,3.19 µM,,,,,,1730 nM,1480 nM,1.67 µM,,,,,,
C=CCn1cc(C(=O)NC(=O)NCCCCCOC(=O)CCCCCCCCCCC(=O)OCCCCCNC(=O)NC(=O)c2cn(CC=C)c(=O)n(C)c2=O)c(=O)n(C)c1=O,> 100 µM,> 100 µM,> 100 µM,> 100 µM,,> 100 µM,> 100 µM,> 100 µM,,,,,,,,,,
N#C/C(=C\c1ccc(C(O)P(=O)(O)O)cc1)C(N)=O (stereo unspecified),> 100 µM,> 100 µM,> 100 µM,> 100 µM,> 100 µM,> 100 µM,> 100 µM,> 100 µM,,,,,,,,,,
C1COCCOCCOCCOCCO1.CC(=O)[CH-]C(C)=O.CC(=O)[CH-]C(C)=O.CC(=O)[CH-]C(C)=O.[V],50 µM,12.9 µM,,13.8 µM,3.81 µM,99.4 µM,37 µM,29.6 µM,,2960 nM,,3.75 µM,20.5 µM,560 nM,16.8 µM,15.1 µM,22.7 µM,
CC/C=C/c1cc2cc[nH]c2c2c1C(C)C[C@@H]2C (stereo partly specified),53.4 µM,36.4 µM,,50.1 µM,,65.3 µM,40.8 µM,31 µM,,,,,,,,,,
O=C(c1ccc(Cl)cc1)c1ccc(OCCSCCCCCCCCCCSCCOc2ccc(C(=O)c3ccc(Cl)cc3)cc2)cc1,> 100 µM,> 100 µM,> 100 µM,,,> 100 µM,> 100 µM,> 100 µM,,,,,,,,,,
N#Cc1c(N)nc(N2CCOCC2)c(C#N)c1-c1ccccc1Cl,> 100 µM,> 100 µM,> 100 µM,> 100 µM,85.3 µM,> 100 µM,,> 100 µM,> 100 µM,62100 nM,> 100000 nM,43.5 µM,21.5 µM,14500 nM,,56 µM,26.8 µM,31.2 µM
c1ccc(COC2(OCc3ccccc3)CC3OC2C2NN=NC32)cc1 (stereo unspecified),41.9 µM,34.8 µM,> 100 µM,43.5 µM,36.4 µM,> 100 µM,80.7 µM,36.5 µM,,,,,,,,,,
COc1cc2c(c(OC)c1OC)-c1ccc(OC)c(=O)cc1[C@@H](N(C)C=O)CC2,> 100 µM,> 100 µM,> 100 µM,0.0247 µM,> 100 µM,,0.747 µM,> 100 µM,,,,,,,,,,
CC(=O)/C=C/c1ccc(C)cc1,> 100 µM,> 100 µM,> 100 µM,> 100 µM,> 100 µM,> 100 µM,> 100 µM,> 100 µM,,,,,,,,,,
C1=Nc2ccccc2C=Nc2ccccc2C=Nc2ccccc2C=Nc2ccccc21.[Cl-].[Pt+2],35.6 µM,97.1 µM,45.6 µM,54.1 µM,,> 100 µM,,> 100 µM,,32200 nM,15100 nM,23.1 µM,5.63 µM,,,29.9 µM,25.7 µM,
O=C(/C=C/c1ccccc1Cl)c1ccc(Cl)cc1Cl,37.5 µM,31.4 µM,42.1 µM,38.5 µM,29.7 µM,31.6 µM,24.1 µM,,,,,,,,,,,
Cc1cc2cn3c4cccnc4[nH]c(=O)c3c2cc1C,4.66 µM,3.33 µM,2.85 µM,3.12 µM,3.19 µM,,2.56 µM,2.99 µM,,1870 nM,1500 nM,1.73 µM,1.89 µM,1600 nM,1.15 µM,1.47 µM,,
